The source made the active and inactive calls. No cut-off for these calls is given here.
Assays:
[1] = Acute toxicity in Kunming mouse assessed as change in cell morphology of spleen at 2000 mg/kg, po measured for 14 days by H and E staining based analysis; assay type: organism-based; details: in vivo, 336 h, time 14 day
Mus musculus [2] = test: Hypoglycemic activity in BKD db/db mouse assessed as increase in insulin receptor phosphorylation in liver at 40 to 80 mg/kg/day, po for 8 weeks by Western blot analysis; assay type: functional, organism-based; details: dose 40-80 mg/kg/day
[3] = target: T1, Tyrosine-protein phosphatase non-receptor type 1 (Homo sapiens, UniProt P18031); test: Binding affinity to PTP1B (unknown origin) assessed as dissociation constant by SPR analysis
T1 sequence (P18031 whole entry): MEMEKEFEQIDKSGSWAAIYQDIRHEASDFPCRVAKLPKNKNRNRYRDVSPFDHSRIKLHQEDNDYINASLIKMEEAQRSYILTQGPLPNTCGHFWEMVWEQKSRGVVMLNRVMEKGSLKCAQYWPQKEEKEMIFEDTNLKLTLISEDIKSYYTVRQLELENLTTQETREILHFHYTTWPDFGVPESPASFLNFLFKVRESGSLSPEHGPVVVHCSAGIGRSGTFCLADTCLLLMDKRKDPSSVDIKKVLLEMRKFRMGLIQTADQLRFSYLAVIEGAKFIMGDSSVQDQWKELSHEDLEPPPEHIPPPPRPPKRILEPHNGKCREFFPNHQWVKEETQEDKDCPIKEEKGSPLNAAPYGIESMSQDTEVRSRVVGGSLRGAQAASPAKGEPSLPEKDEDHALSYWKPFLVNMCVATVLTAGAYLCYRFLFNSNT

Mus musculus [4] = test: Hypoglycemic activity in BKD db/db mouse assessed as increase in AKT phosphorylation in epididymal white adipose tissue at 40 to 80 mg/kg/day, po for 8 weeks by Western blot analysis; assay type: functional, organism-based; details: dose 40-80 mg/kg/day
[5] = Acute toxicity in Kunming mouse assessed as change in cell morphology of kidney at 2000 mg/kg, po measured for 14 days by H and E staining based analysis; assay type: organism-based; details: in vivo, 336 h, time 14 day
[6] = Toxicity in BKD db/db mouse assessed as effect on para-metrial white adipose tissue weight at 40 to 80 mg/kg/day, po qd for 8 weeks; assay type: organism-based; details: in vivo, 1344 h, dose 40-80 mg/kg/day
[7] = Toxicity in BKD db/db mouse assessed as effect on epididymal white adipose tissue weight at 40 to 80 mg/kg/day, po qd for 8 weeks; assay type: organism-based; details: in vivo, 1344 h, dose 40-80 mg/kg/day
[8] = Toxicity in BKD db/db mouse assessed as effect on kidney weight at 40 to 80 mg/kg/day, po qd for 8 weeks; assay type: organism-based; details: in vivo, 1344 h, dose 40-80 mg/kg/day
Mus musculus [9] = test: Hypoglycemic activity in BKD db/db mouse assessed as decrease in blood glucose level at 40 to 80 mg/kg/day, po qd for 3 to 4 weeks; assay type: functional, organism-based; details: dose 40-80 mg/kg/day, time 3-4 weeks
Mus musculus [10] = test: Hypoglycemic activity in BKD db/db mouse assessed as decrease in serum insulin level at 40 to 80 mg/kg/day, po qd for 7 weeks; assay type: functional, organism-based; details: dose 40-80 mg/kg/day
[11] = target: T2, Tyrosine-protein phosphatase non-receptor type 1 (Homo sapiens) (UniProt P18031); test: Induction of thermal stabilization of PTP1B in human HepG2 cells at 2.5 u incubated for 6 hrs followed by heat exposure at 51 to 65 degreeC for 4 mins by CETSA; assay type: cell-based
T2 sequence (whole entry): T1 sequence (P18031 whole entry)

Mus musculus [12] = test: Hypoglycemic activity in BKD db/db mouse assessed as increase in insulin receptor phosphorylation in epididymal white adipose tissue at 40 to 80 mg/kg/day, po for 8 weeks by Western blot analysis; assay type: functional, organism-based; details: dose 40-80 mg/kg/day
[13] = Toxicity in BKD db/db mouse assessed as effect on subcutaneous fat weight at 40 to 80 mg/kg/day, po qd for 8 weeks; assay type: organism-based; details: in vivo, 1344 h, dose 40-80 mg/kg/day
[14] = Toxicity in BKD db/db mouse assessed as effect on body weight at 40 to 80 mg/kg/day, po qd for 8 weeks; assay type: organism-based; details: in vivo, 1344 h, dose 40-80 mg/kg/day
HepG2 [15] = test: Inhibition of insulin-resistance in insulin-resistant human HepG2 cells assessed as increase in insulin receptor phosphorylation pretreated for 24 hrs followed by compound washout and further addition of insulin measured after 20 mins by Western blot analysis; assay type: functional, cell-based; details: dose 0.625-2.5 µM
Mus musculus [16] = test: Hypoglycemic activity in BKD db/db mouse assessed as increase in AKT phosphorylation in liver at 40 to 80 mg/kg/day, po for 8 weeks by Western blot analysis; assay type: functional, organism-based; details: dose 40-80 mg/kg/day
HepG2 [17] = test: Induction of glucose uptake in human HepG2 cells cultured in low glucose medium containing compound for 24 hrs; assay type: functional, cell-based; details: dose 0.625-2.5 µmol/L
Mus musculus [18] = test: Hypoglycemic activity in BKD db/db mouse assessed as decrease in blood glucose level at 40 to 80 mg/kg/day, po for 7 weeks followed by insulin injection by […] method; assay type: functional, organism-based; details: dose 40-80 mg/kg/day
C2C12 [19] = test: Induction of glucose uptake in mouse C2C12 cells cultured in low glucose medium containing compound for 24 hrs; assay type: functional, cell-based; details: dose 0.625-2.5 µmol/L
3T3-L1 [20] = test: Inhibition of insulin-resistance in insulin-resistant mouse 3T3-L1 cells assessed as increase in insulin receptor phosphorylation pretreated for 24 hrs followed by compound washout and further addition of insulin measured after 20 mins by Western blot analysis; assay type: functional, cell-based; details: dose 0.625-2.5 µM
[21] = target: T1, Tyrosine-protein phosphatase non-receptor type 1; test: Allosteric inhibition of recombinant human PTP1B (1 to 321 residues) using pNPP as substrate preincubated for 5 mins followed by substrate addition measured after 10 mins
[22] = Acute toxicity in Kunming mouse assessed as toxic effects at 2000 mg/kg, po measured for 14 days; assay type: organism-based; details: in vivo, 336 h, time 14 day
Mus musculus [23] = test: Hypoglycemic activity in BKD db/db mouse assessed as increase in insulin receptor phosphorylation in skeletal muscle at 40 to 80 mg/kg/day, po for 8 weeks by Western blot analysis; assay type: functional, organism-based; details: dose 40-80 mg/kg/day
3T3-L1 [24] = test: Induction of glucose uptake in mouse 3T3-L1 cells cultured in low glucose medium containing compound for 24 hrs; assay type: functional, cell-based; details: dose 0.625-2.5 µmol/L
Hepatocyte = test: Inhibition of insulin-resistance in insulin-resistant C57BL/J mouse […] primary hepatocytes assessed as increase in insulin receptor phosphorylation pretreated for 24 hrs followed by compound washout and further addition of insulin measured after 20 mins by Western blot analysis; assay type: functional, cell-based; details: dose 0.625-2.5 µM
[25] = Inhibition of PTP1B N193A/K197A mutant (unknown origin) using pNPP as substrate incubated for 30 mins by spectrophotometry; parameters: species or system Homo sapiens
C2C12 [26] = test: Inhibition of insulin-resistance in insulin-resistant mouse C2C12 cells assessed as increase in AKT phosphorylation pretreated for 24 hrs followed by compound washout and further addition of insulin measured after 20 mins by Western blot analysis; assay type: functional, cell-based; details: dose 0.625-2.5 µM
C2C12 [27] = test: Inhibition of insulin-resistance in insulin-resistant mouse C2C12 cells assessed as increase in insulin receptor phosphorylation pretreated for 24 hrs followed by compound washout and further addition of insulin measured after 20 mins by Western blot analysis; assay type: functional, cell-based; details: dose 0.625-2.5 µM
[28] = Acute toxicity in Kunming mouse assessed as change in cell morphology of liver at 2000 mg/kg, po measured for 14 days by H and E staining based analysis; assay type: organism-based; details: in vivo, 336 h, time 14 day
[29] = Toxicity in BKD db/db mouse assessed as effect on food intake at 40 to 80 mg/kg/day, po qd for 8 weeks; assay type: organism-based; details: in vivo, 1344 h, dose 40-80 mg/kg/day
Mus musculus [30] = test: Hypoglycemic activity in BKD db/db mouse assessed as regular arrangement of liver cells at 40 to 80 mg/kg/day, po for 8 weeks by H and E staining based analysis; assay type: functional, organism-based; details: dose 40-80 mg/kg/day

CCOc1ccc(Oc2ccc(C(=O)/C=C/c3cc(O)c(O)c(Br)c3Br)cc2)cc1
Activity [1]: Non-toxic
Activity (Mus musculus [2]): Active
Kd [3]: 61.2 nM
Activity (Mus musculus [4]): Active
Activity [5]: Non-toxic
Activity [6]: Non-toxic
Activity [7]: Non-toxic
Activity [8]: Non-toxic
Activity (Mus musculus [9]): Active
Activity (Mus musculus [10]): Active
Activity [11]: Active
Activity (Mus musculus [12]): Active
Activity [13]: Non-toxic
Activity [14]: Non-toxic
inhibition (HepG2 [15]): Dose-dependent-effect
Activity (Mus musculus [16]): Active
Activity (HepG2 [17]): Dose-dependent-effect
Activity (Mus musculus [18]): Active
Activity (C2C12 [19]): Dose-dependent-effect
inhibition (3T3-L1 [20]): Dose-dependent-effect
Ki [21]: 2330 nM
Activity [22]: Non-toxic
Activity (Mus musculus [23]): Active
Activity (3T3-L1 [24]): Dose-dependent-effect
inhibition (Hepatocyte): Dose-dependent-effect
IC50 [25]: 14800 nM
inhibition (C2C12 [26]): Dose-dependent-effect
inhibition (C2C12 [27]): Dose-dependent-effect
Activity [28]: Non-toxic
Activity [29]: Non-toxic
Activity (Mus musculus [30]): Active

Source: ChEMBL document CHEMBL6096654, “Allosteric inhibition of PTP1B by bromocatechol-chalcone derivatives” (Eur J Med Chem, 2025)
